Experiments:
[1] = system: human multiple myeloma RPMI8226 cells; test: Inhibitory activity against human multiple myeloma RPMI8226 cell growth (CellTiter-Glo); type: cell-based; conditions: Homo sapiens, RPMI-8226, 192 h, 1 μM of the test compound, cultured for 8 days; read-out: Percent inhibition of RPMI8226 cell growth (%)
How it was run: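 RPMI8226 cells (300/well) cultured 1 day at 37 °C, 5% CO2, then given compound at 1 μM for 8 days. ATP luminescence (CellTiter-Glo) read; percent inhibition relative to 0.1% DMSO wells.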

[2] = biological target: T1, CDK19 (CDC2L6/CycC) (Homo sapiens, UniProt Q9BWU1); test: CDK19 inhibitory activity (TR-FRET, Kinase Tracer-236 displacement); type: binding; conditions: 1 μM of the test compound; read-out: Percent inhibition of CDK19 activity (%)
T1 construct: purchased Carna Biosciences
T1 sequence (Q9BWU1 whole entry): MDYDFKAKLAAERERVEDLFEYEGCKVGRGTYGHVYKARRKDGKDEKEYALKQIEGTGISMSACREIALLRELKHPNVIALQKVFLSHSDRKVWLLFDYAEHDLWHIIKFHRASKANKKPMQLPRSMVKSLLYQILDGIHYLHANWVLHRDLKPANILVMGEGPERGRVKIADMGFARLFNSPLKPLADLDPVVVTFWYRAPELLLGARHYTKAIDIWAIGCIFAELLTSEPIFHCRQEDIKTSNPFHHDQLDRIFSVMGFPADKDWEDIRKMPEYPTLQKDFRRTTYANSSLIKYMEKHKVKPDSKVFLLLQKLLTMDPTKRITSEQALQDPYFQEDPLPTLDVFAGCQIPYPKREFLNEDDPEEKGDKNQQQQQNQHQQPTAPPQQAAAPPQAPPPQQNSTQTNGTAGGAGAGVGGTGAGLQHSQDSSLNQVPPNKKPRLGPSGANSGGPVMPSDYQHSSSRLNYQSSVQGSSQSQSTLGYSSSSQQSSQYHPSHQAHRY
T1 sequence (P24863 whole entry partner): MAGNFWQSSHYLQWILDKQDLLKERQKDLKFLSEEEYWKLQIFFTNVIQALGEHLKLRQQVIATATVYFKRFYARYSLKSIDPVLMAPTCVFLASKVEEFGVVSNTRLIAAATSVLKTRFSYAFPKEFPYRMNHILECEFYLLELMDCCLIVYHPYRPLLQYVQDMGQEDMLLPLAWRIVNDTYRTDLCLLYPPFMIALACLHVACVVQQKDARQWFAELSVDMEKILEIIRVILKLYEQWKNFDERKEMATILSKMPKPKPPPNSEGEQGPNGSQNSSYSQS
How it was run: (§1)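 Binding assay measuring displacement of Kinase Tracer-236 (60 nM in the added mix) by compound, using Eu-cryptate anti-GST antibody with CDK8/CycC (84 ng/mL) or CDC2L6/CycC (87 ng/mL) solutions. After 1 h at room temperature, TR-FRET read at 615 and 665 nm (excitation 320 nm).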

[3] = system: SW480 human colorectal cancer cells; test: Antitumor efficacy in mice bearing SW480 human colorectal cancer xenograft; type: in vivo, BALB/c female nude mice; conditions: Mus musculus, SW480, 336 h, oral, 1 dose per day, 14 days, percent tumor growth relative to control group, read-out: T/C (%)
Protocol: The compound of the present invention was evaluated for its antitumor efficacy in mice bearing cancer derived from SW480 human colorectal cancer cells by the following method.
SW480 human colorectal cancer cells were transplanted into 6- to 7-week-old BALB/c female nude mice (CLEA Japan) by subcutaneous injection of 2.0×10^6 cells per mouse. At 7 to 14 days after the transplantation, the size of the engrafted tumor was measured, and the tumor volume was calculated according to the following formula. Tumor volume=major axis×minor axis×minor axis×(½)
Test subjects having an engrafted tumor with a tumor volume of approximately 100 mm^3 were selected and used in the experiment (6 subjects per group). A suspension of each test compound in a 0.5% methylcellulose solution (Wako Pure Chemical Industries) was orally administered to the mice for 14 days at the dose (mg/kg body weight, indicating the amount per dose) and the number of doses shown in Table 4. On the day before the start of the administration and the day before the completion of the administration, the tumor size was measured, and the tumor volume was calculated.
Percent tumor growth (T/C (%)) of the test compound administration group relative to the control administration group was calculated according to the following formula. T/C(%)=(tumor volume of the test compound administration group after the completion of the administration−tumor volume of the test compound administration group at the day before the start of the administration)/(tumor volume of the control administration group after the completion of the administration−tumor volume of the control administration group at the day before the start of the administration))×100

[4] = biological target: T2, CDK8/CycC (Homo sapiens, UniProt P49336); test: CDK8 inhibitory activity (TR-FRET, Kinase Tracer-236 displacement); type: binding; conditions: 1 μM of the test compound; read-out: Percent inhibition of CDK8 activity (%)
T2 construct: purchased Carna Biosciences
T2 sequence (P49336 whole entry): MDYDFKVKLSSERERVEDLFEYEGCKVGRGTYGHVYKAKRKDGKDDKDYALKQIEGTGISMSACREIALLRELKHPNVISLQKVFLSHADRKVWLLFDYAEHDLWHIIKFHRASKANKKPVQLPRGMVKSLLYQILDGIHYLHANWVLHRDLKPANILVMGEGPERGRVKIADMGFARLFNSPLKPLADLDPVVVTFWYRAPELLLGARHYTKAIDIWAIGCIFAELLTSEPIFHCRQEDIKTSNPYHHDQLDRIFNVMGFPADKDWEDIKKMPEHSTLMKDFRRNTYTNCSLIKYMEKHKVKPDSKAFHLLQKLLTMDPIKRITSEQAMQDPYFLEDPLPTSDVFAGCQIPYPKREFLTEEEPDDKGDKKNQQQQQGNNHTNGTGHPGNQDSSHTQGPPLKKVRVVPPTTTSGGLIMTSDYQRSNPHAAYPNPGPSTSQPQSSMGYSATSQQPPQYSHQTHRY
T2 sequence (P24863 whole entry partner): as the sequence (P24863 whole entry partner) above
How it was run: as §1

Row | inhibition at 1 µM [2] [%] | inhibition at 1 µM [4] [%] | SMILES | inhibition at 1 µM [1] [%] | response vs control in vivo at 50 mg/kg [3] [%] | response vs control in vivo at 30 mg/kg [3] [%]
1 | 100 | 102 | Cn1cc(-c2ccncc2/C=C/C(=O)Nc2ccc3c(c2)CN(CC(F)(F)F)CC3)cn1 [Example 216, (2E)-3-(4-(1-Methyl-1H-pyrazol-4-yl)pyridin-3-yl)-N-(2-(2,2,2-trifluoroethyl)-1,2,3,4-tetrahydroisoquinolin-7-yl)acrylamide] | 59 | 43 | –
2 | 102 | 98 | Cn1cc(-c2ccncc2/C=C/C(=O)Nc2ccc3c(c2)CN(CC(F)(F)F)C3)cn1 [Example 289, (2E)-3-(4-(1-Methyl-1H-pyrazol-4-yl)pyridin-3-yl)-N-(2-(2,2,2-trifluoroethyl)-2,3-dihydro-1H-isoindol-5-yl)acrylamide] | 64 | 31 | –
3 | 100 | 104 | O=C(/C=C/c1cncc(F)c1-c1cnn(C2CC2)c1)Nc1ccc2c(c1)CN(CC(F)(F)F)C2 [Example 324, (2E)-3-(4-(1-Cyclopropyl-1H-pyrazol-4-yl)-5-fluoropyridin-3-yl)-N-(2-(2,2,2-trifluoroethyl)-2,3-dihydro-1H-isoindol-5-yl)acrylamide] | 58 | – | 29
4 | 99 | 100 | Cn1cc(-c2ccncc2/C=C/C(=O)Nc2ccc(CN3CCOCC3)c(C#N)c2)cn1 [Example 150, (2E)-N-(3-Cyano-4-(morpholin-4-ylmethyl)phenyl)-3-(4-(1-methyl-1H-pyrazol-4-yl)pyridin-3-yl)acrylamide] | 54 | – | –
5 | 100 | 102 | Cn1cc(-c2ccncc2/C=C/C(=O)Nc2ccc(N3CCOCC3)c(Cl)c2)cn1 [Example 159, (2E)-N-(3-chloro-4-(morpholin-4-yl)phenyl)-3-(4-(1-methyl-1H-pyrazol-4-yl)pyridin-3-yl)acrylamide] | 60 | – | –
6 | 94 | 100 | Cn1cc(-c2ccncc2/C=C/C(=O)Nc2ccc3c(c2)OCC3)cn1 [Example 116, (2E)-N-(2,3-dihydro-1-benzofuran-6-yl)-3-(4-(1-methyl-1H-pyrazol-4-yl)pyridin-3-yl)acrylamide] | 55 | – | –
7 | 99 | 99 | Cn1cc(-c2ccncc2/C=C/C(=O)Nc2ccc(CN3CCOCC3)c(Cl)c2)cn1 [Example 42, (2E)-N-(3-Chloro-4-(morpholin-4-ylmethyl)phenyl)-3-(4-(1-methyl-1H-pyrazol-4-yl)pyridin-3-yl)acrylamide] | 53 | – | –

Second part, the molecule before the results:

Row | SMILES | inhibition at 1 µM [2] [%] | inhibition at 1 µM [4] [%] | inhibition at 1 µM [1] [%] | response vs control in vivo at 50 mg/kg [3] [%] | response vs control in vivo at 30 mg/kg [3] [%]
8 | Cn1cc(-c2c(F)cncc2/C=C/C(=O)Nc2ccc(CN3CC(F)(F)C3)cc2)cn1 [Example 359, (2E)-N-(4-((3,3-Difluoroazetidin-1-yl)methyl)phenyl)-3-(5-fluoro-4-(1-methyl-1H-pyrazol-4-yl)pyridin-3-yl)acrylamide] | 102 | 103 | 65 | – | 36
9 | CN(C)CCOc1ccc(NC(=O)/C=C/c2cnccc2-c2cnn(C)c2)cc1 [Example 252, (2E)-N-(4-(2-(dimethylamino)ethoxy)phenyl)-3-(4-(1-methyl-1H-pyrazol-4-yl)pyridin-3-yl)acrylamide] | 93 | 99 | 60 | – | –
10 | COC(C)(C)Cc1ccc(NC(=O)/C=C/c2cnccc2-c2cnn(C3CC3)c2)cc1 [Example 272, (2E)-3-(4-(1-cyclopropyl-1H-pyrazol-4-yl)pyridin-3-yl)-N-(4-(2-methoxy-2-methylpropyl)phenyl)acrylamide] | 94 | 101 | 67 | – | –
11 | CC(C)(F)Cc1ccc(NC(=O)/C=C/c2cncc(F)c2-c2cnn(C3CC3)c2)cc1 [Example 348, (2E)-3-(4-(1-Cyclopropyl-1H-pyrazol-4-yl)-5-fluoropyridin-3-yl)-N-(4-(2-fluoro-2-methylpropyl)phenyl)acrylamide] | 101 | 99 | 62 | – | –
